In US20250230131A1, “NOVEL IONIZABLE LIPID AND LIPID NANOPARTICLE COMPOSITION USING SAME” (MediciBIO Co., Ltd, priority 2022, published 2025):

Key:
[1] = Size (diameter) and PDI of lipid nanoparticles by Dynamic Light Scattering; type: physicochemical; details: lipid nanoparticles of the ionizable lipid; diluted with PBS to mRNA 1 μg/mL; DLS
Procedure: (§1) The size and surface charge of lipid nanoparticles according to the ionizable lipid prepared in Example 1 were measured. To measure the size of the lipid nanoparticles, dilution was conducted using PBS to reach the concentration of mRNA contained in each lipid nanoparticle to 1 μg/mL, and Dynamic Light Scattering (DLS) of Malvern Zetasizer Nano (Malvern Instruments, UK) was applied to measure the diameter and a polydispersity index (hereinafter referred to as PDI) of lipid nanoparticles. In addition, in order to measure the surface charge of lipid nanoparticles, dilution was conducted using PBS to reach the concentration of mRNA contained in each lipid nanoparticle to 1 μg/mL, and the surface charge (zeta potential) was measured using the same equipment as above.

[2] = Surface charge (zeta potential) of lipid nanoparticles; type: physicochemical; details: diluted with PBS to mRNA 1 μg/mL
Procedure: as §1

[3] = Gene encapsulation efficiency, Quant-iT Ribogreen RNA Reagent and Kit; type: physicochemical; details: lipid nanoparticles, TE buffer vs 2% Triton-TE buffer
Procedure: To determine a gene encapsulation efficiency of lipid nanoparticles, the Quant-iT™ Ribogreen™ RNA Reagent and Kit was used. A stock solution for the calibration curve was prepared by taking 5 μL of the ribosomal RNA standard (100 μg/mL in TE buffer) and diluting it with either 245 μL of TE buffer or 0.4% Triton-TE buffer, respectively. Aliquots of 2, 5, 10, 25, and 50 μL of the stock solution were taken, diluted with TE buffer or 0.4% Triton-TE buffer to achieve a total volume of 100 μL, and then mixed with 100 μL of Quant-iT™ Ribogreen™ RNA Reagent; the fluorescence intensity (excitation 475 nm and emission 500˜550 nm) was measured to create a calibration curve. A volume of 5 μL of the nanoparticle solution prepared in Example 2 was taken and diluted with 245 μL of TE buffer (10 mM Tris-HCl, 1 mM EDTA, pH 7.5 in DEPC-treated water). After 50 μL of TE buffer or 50 μL of 2% Triton-TE buffer was added to 50 μL of the diluted nanoparticle solution, respectively, the mixture was incubated at 37° C. for about 10 minutes. Afterwards, 40 μL of each mixture was transferred to a microplate, and 60 μL of TE buffer and 100 μL of Quant-iT™ Ribogreen™ RNA Reagent were added sequentially to measure the fluorescence intensity. After calculating the gene dosage (T0) in the TE buffer and the gene dosage (T2) in the 2% Triton-TE buffer by substituting the measured fluorescence intensity into the calibration curve, the gene encapsulation efficiency was calculated using the following Mathematical Equation 1.

HeLa cells = experiment: Intracellular gene delivery efficacy of FLuc mRNA-LNP (luciferase expression); type: cell-based, human; details: 0.25 μg/ml encapsulated FLuc mRNA, 6 hours
Procedure: To determine the intracellular gene delivery efficacy of lipid nanoparticles, lipid nanoparticles encapsulated with FLuc mRNA(Fluc mRNA-LNP) were used. To evaluate the gene delivery efficacy, HeLa cells (Korea Cell Line Bank, Seoul), human cervical cancer cell lines expressing low-density lipoprotein (LDL) receptors on the cell surface, were used, and cultured with the MEM medium containing 10% fetal bovine serum and penicillin/streptomycin at 37° C. in the presence of 5% CO2. HeLa cell lines were seeded at 2×10^4 cells per well in a 96-well plate, and after 16˜24 hours, the cells were treated with lipid nanoparticles at a concentration of 0.25 μg/ml based on encapsulated mRNA, in a total volume of 100 μl MEM medium per well in the absence or the presence of 10% fetal bovine serum (FBS).
To measure the expression of intracellular luciferase after FLuc mRNA delivery by lipid nanoparticles, the cells were washed with PBS after 6 hours of treatment. Then, and 100 μl of Glo-Lysis Buffer (Promega, WI, USA) was added to lyse the cells at room temperature for 5 minutes. The lysed cells were added with 100 μl of Steady-Glo™ Luciferase Assay solution (Promega) in a 1:1 ratio, left at room temperature for 5 minutes, and then transferred to a 96-well white plate. Luminescent values were detected using a GloMax Discover microplate reader (Promega). Recombinant luciferase (Promega) was used as the standard material to generate the calibration curve, which was used to determine the luciferase concentration (pg/ml) in the samples.

[4] = tested on: mice of the C57BL/6 lineage; experiment: Gene delivery efficiency in vivo, intravenous injection, liver luciferase expression; details: C57BL/6 mice, after 4 hours
Procedure: (§2) In order to identify the gene delivery efficacy and distribution of lipid nanoparticles in vivo, lipid nanoparticles were injected into 7-week-old mice of the C57BL/6 lineage either intravenously or intramuscularly in the thigh. The liver was extracted in the case of intravenous injection and the organs including the femoral muscle were extracted in the case of intramuscular injection by sacrificing the mice after 4 hours.
(§3) To determine the level of luciferase expression in tissue samples, the tissue sections were weighed and transferred to a tube containing 3 mm metal beads, and a homogenized by adding 500 μl of Glo-Lysis Buffer (Promega) per 50 mg of tissue. The supernatant from the centrifuged homogenates was collected and diluted with the Glo-Lysis Buffer to an appropriate ratio. The diluted homogenates and the Steady-Glo Luciferase Assay solution were then mixed in a 1:1 ratio, with 50 μl of each. After a 5-minute incubation, the luminescence values of luciferase were measured using the same method as described in Example 3-1, and the expression levels (ng/g tissue) of luciferase were calculated.

[5] = tested on: mice of the C57BL/6 lineage; experiment: Gene delivery efficiency in vivo, intramuscular injection in the thigh, muscle luciferase expression; details: femoral muscle, C57BL/6 mice, after 4 hours
Procedure: as §2, §3

Structure (SMILES)	PDI [1]	Particle size [1]	Surface Charge [2]	Gene encapsulation efficiency [3]	Luciferase expression level (Mean ± SD) (HeLa cells; 10% FBS)	Luciferase expression level (Mean ± SD) (HeLa cells; w/o FBS)	Luciferase expression level (Mean ± SD) [4]	Luciferase expression level (Mean ± SD) [5]
CCCCCCCCC(CCCCCC)C(=O)OCCCCCCN(CCCCCCOC(=O)C(CCCCCC)CCCCCCCC)CCN1CCNCC1 (centres unmarked) [Compound 2, ((2-(piperazin-1-yl)ethyl)azanediyl)bis(hexane-6,1-diyl) bis(2-hexyldecanoate)]	0.12	106 nm	+28.1 mV	94.9%	8,492 ± 2,375 pg/ml	15,270 ± 2,273 pg/ml	–	–
CCCCCCCCC(CCCCCC)C(=O)OCCCCCCN(CCCCCCOC(=O)C(CCCCCC)CCCCCCCC)CCC1CCNCC1 (centres unmarked) [Compound 1, ((2-(piperidin-4-yl)ethyl)azanediyl)bis(hexane-6,1-diyl) bis(2-hexyldecanoate)]	0.09	121 nm	+29.1 mV	99.7%	16,060 ± 102 pg/ml	16,685 ± 646 pg/ml	–	–
CCCCCCCCC(CCCCCC)C(=O)OCCCCCCN(CCCCCCOC(=O)C(CCCCCC)CCCCCCCC)CCCn1cc(C)nc1C (centres unmarked) [Compound 6, ((3-(2,4-dimethyl-1H-imidazol-1-yl)propyl)azanediyl)bis(hexane-6,1-diyl)bis(2-hexyldecanoate)]	–	–	–	–	–	–	1,172 ± 99 ng/g	358 ± 74 ng/g
CCCCCCCCC(CCCCCC)C(=O)OCCCCCCN(CCCCCCOC(=O)C(CCCCCC)CCCCCCCC)CCCn1ccnc1C (centres unmarked) [Compound 5, ((3-(2-methyl-1H-imidazol-1-yl)propyl)azanediyl)bis(hexane-6,1-diyl) bis(2-hexyldecanoate)]	0.08	104 nm	+19.9 mV	93.5%	–	–	2,582 ± 745 ng/g	651 ± 158 ng/g
CCCCCCCCC(CCCCCC)C(=O)OCCCCCCN(CCCCCCOC(=O)C(CCCCCC)CCCCCCCC)CCc1ccc(N)nc1 (centres unmarked) [Compound 4, ((2-(6-aminopyridin-3-yl)ethyl)azanediyl)bis(hexane-6,1-diyl) bis(2-hexyldecanoate)]	0.13	84 nm	+2.0 mV	78.2%	–	–	6,844 ± 2,052 ng/g	–
CCCCCCCCC(CCCCCC)C(=O)OCCCCCCN(CCCCCCOC(=O)C(CCCCCC)CCCCCCCC)Cc1ccc(N)cc1 (centres unmarked) [Compound 3, ((4-aminobenzyl)azanediyl)bis(hexane-6,1-diyl) bis(2-hexyldecanoate)]	0.18	78 nm	−1.4 mV	93.8%	–	–	–	–
